Measured values as given in PMC7265341, “Quantifying CDK inhibitor selectivity in live cells” (Nature Communications, 2020).
Read-outs that look alike come from different tables or passages of the source.

Legend:
[1] = molecular target: CDK9/Cyclin K (Homo sapiens, UniProt P50750); assay: NanoBRET live-cell target engagement, NanoLuc-CDK9/Cyclin K in HEK-293; type: binding; conditions: CDK9/K
[2] = molecular target: CDK17/Cyclin Y (Homo sapiens, UniProt Q00537); assay: NanoBRET live-cell target engagement, CDK17-NanoLuc/Cyclin Y in HEK-293; type: binding; conditions: CDK17/Y; for IC50: read-out: IC50
Sequence of CDK17/Cyclin Y (Q00537 whole entry): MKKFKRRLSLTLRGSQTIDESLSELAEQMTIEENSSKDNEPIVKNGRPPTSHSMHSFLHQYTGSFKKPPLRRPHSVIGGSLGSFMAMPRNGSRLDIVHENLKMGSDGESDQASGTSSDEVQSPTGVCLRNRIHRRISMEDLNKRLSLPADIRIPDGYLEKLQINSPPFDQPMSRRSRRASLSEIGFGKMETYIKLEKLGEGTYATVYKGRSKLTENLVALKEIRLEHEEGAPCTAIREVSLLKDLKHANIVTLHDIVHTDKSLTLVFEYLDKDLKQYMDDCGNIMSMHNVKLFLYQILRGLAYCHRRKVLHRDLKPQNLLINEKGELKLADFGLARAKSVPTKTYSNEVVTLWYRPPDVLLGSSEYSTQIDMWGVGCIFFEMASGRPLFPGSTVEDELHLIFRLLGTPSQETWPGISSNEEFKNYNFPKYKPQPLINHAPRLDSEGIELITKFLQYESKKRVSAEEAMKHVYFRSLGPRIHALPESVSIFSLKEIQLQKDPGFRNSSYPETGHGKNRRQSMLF
Sequence of CDK17/Cyclin Y (Q8ND76 whole entry partner): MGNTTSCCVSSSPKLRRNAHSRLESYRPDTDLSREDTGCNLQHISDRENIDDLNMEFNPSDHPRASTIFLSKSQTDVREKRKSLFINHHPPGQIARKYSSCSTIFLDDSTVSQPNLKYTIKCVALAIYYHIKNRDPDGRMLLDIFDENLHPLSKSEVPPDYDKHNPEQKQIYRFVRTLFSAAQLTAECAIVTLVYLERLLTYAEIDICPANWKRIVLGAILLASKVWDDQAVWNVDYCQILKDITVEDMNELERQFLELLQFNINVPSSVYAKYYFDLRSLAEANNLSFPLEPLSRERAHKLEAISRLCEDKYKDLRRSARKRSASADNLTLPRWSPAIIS

[3] = molecular target: CDK14/Cyclin Y (Homo sapiens, UniProt O94921); assay: NanoBRET live-cell target engagement, CDK14-NanoLuc/Cyclin Y in HEK-293; type: binding; conditions: CDK14/Y
Sequence of CDK14/Cyclin Y (O94921 whole entry): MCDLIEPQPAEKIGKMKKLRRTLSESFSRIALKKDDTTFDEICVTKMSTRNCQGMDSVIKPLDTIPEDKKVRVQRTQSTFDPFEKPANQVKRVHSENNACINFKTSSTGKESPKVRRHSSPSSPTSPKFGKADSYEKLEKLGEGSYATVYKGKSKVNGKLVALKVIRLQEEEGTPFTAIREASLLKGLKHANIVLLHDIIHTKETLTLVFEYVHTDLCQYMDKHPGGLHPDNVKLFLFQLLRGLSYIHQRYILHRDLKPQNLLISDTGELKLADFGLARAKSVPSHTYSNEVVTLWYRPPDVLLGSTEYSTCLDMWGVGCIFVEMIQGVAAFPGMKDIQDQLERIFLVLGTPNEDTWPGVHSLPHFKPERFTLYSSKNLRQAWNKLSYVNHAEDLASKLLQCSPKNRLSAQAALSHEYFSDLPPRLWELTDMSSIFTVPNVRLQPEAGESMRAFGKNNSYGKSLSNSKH
Sequence of CDK14/Cyclin Y (Q8ND76 whole entry partner): as the sequence (Q8ND76 whole entry partner) above

[4] = molecular target: CDK2/Cyclin E1 (Homo sapiens, UniProt P24941); assay: NanoBRET live-cell target engagement, CDK2-NanoLuc/Cyclin E1 in HEK-293; type: binding
[5] = molecular target: CDK1/Cyclin E1 (Homo sapiens, UniProt P06493); assay: NanoBRET live-cell target engagement, CDK1-NanoLuc/Cyclin E1 in HEK-293; type: binding
[6] = molecular target: CDK7 (Homo sapiens, UniProt P50613); assay: NanoBRET live-cell target engagement, NanoLuc-CDK7 in HEK-293; type: binding; conditions: CDK7; for IC50: read-out: IC50
Sequence of CDK7 (P50613 whole entry): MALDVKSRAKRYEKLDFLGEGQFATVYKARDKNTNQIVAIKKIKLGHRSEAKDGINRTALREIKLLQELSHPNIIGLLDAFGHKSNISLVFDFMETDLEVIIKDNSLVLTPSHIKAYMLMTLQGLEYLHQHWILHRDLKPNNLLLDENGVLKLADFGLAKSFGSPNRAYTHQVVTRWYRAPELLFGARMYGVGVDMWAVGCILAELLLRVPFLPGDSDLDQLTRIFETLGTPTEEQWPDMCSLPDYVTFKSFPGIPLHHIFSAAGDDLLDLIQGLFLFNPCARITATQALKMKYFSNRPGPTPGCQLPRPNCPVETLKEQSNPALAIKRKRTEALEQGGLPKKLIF

[7] = molecular target: CDK6/Cyclin D1 (Homo sapiens, UniProt Q00534); assay: NanoBRET live-cell target engagement, NanoLuc-CDK6/Cyclin D1 in HEK-293; type: binding; conditions: CDK6/D1; for IC50: read-out: IC50
[8] = molecular target: CDK10/Cyclin L2 (Homo sapiens, UniProt Q15131); assay: NanoBRET live-cell target engagement, CDK10-NanoLuc/Cyclin L2 in HEK-293; conditions: CDK10/L2
Sequence of CDK10/Cyclin L2 (Q15131 whole entry): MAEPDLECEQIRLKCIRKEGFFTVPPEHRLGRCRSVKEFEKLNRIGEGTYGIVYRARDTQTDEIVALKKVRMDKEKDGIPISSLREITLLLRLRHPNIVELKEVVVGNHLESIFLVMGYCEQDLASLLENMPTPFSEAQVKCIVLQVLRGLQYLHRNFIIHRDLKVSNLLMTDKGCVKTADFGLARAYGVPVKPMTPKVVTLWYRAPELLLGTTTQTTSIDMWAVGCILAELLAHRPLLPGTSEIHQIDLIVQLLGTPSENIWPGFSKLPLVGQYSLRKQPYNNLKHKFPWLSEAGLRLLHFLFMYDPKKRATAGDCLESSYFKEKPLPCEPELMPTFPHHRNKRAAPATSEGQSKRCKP

[9] = molecular target: CDK15/Cyclin Y (Homo sapiens, UniProt Q96Q40); assay: NanoBRET live-cell target engagement, NanoLuc-CDK15/Cyclin Y in HEK-293; type: binding
[10] = molecular target: CDK4/Cyclin D1 (Homo sapiens, UniProt P11802); assay: NanoBRET live-cell target engagement, NanoLuc-CDK4/Cyclin D1 in HEK-293; type: binding; conditions: CDK4/D1; for IC50: read-out: IC50
Sequence of CDK4/Cyclin D1 (P11802 whole entry): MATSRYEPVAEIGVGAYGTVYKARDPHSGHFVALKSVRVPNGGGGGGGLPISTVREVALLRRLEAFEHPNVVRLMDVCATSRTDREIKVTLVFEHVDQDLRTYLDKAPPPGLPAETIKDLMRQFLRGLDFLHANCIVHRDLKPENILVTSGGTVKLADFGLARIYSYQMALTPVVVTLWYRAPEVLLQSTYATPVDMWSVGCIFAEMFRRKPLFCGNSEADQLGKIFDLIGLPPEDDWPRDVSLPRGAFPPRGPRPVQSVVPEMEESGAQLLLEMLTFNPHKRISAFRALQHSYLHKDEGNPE
Sequence of CDK4/Cyclin D1 (P24385 whole entry partner): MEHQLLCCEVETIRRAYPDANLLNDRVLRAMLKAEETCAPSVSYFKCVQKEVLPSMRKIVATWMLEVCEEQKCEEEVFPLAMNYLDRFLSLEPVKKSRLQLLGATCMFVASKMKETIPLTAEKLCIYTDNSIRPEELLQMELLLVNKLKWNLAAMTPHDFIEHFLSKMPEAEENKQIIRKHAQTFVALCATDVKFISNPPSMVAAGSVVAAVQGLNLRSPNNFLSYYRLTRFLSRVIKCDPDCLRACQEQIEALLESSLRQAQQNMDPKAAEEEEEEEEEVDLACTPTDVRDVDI

[11] = molecular target: CDK3/Cyclin E1 (Homo sapiens, UniProt Q00526); assay: NanoBRET live-cell target engagement, CDK3-NanoLuc/Cyclin E1 in HEK-293; type: binding; conditions: CDK3/E1; for IC50: read-out: IC50
[12] = molecular target: CDK19/Cyclin C (Homo sapiens, UniProt Q9BWU1); assay: NanoBRET live-cell target engagement, NanoLuc-CDK19/Cyclin C in HEK-293; conditions: CDK19/C
[13] = molecular target: CDK18/Cyclin Y (Homo sapiens, UniProt Q07002); assay: NanoBRET live-cell target engagement, CDK18-NanoLuc/Cyclin Y in HEK-293; type: binding; conditions: CDK18/Y; for IC50: read-out: IC50
[14] = molecular target: CDK12/Cyclin K (Homo sapiens, UniProt Q9NYV4); assay: NanoBRET live-cell target engagement, CDK12-NanoLuc/Cyclin K in HEK-293; type: binding; conditions: CDK12/K
[15] = molecular target: CDK20/Cyclin H (Homo sapiens, UniProt Q8IZL9); assay: NanoBRET live-cell target engagement, NanoLuc-CDK20/Cyclin H in HEK-293; type: binding; conditions: CDK20/H
[16] = molecular target: CDK13/Cyclin K (Homo sapiens, UniProt Q14004); assay: NanoBRET live-cell target engagement, CDK13-NanoLuc/Cyclin K in HEK-293; type: binding; conditions: CDK13/K
[17] = molecular target: CDK16/Cyclin Y (Homo sapiens, UniProt Q00536); assay: NanoBRET live-cell target engagement, CDK16-NanoLuc/Cyclin Y in HEK-293; type: binding; conditions: CDK16/Y; for IC50: read-out: IC50
Sequence of CDK16/Cyclin Y (Q00536 whole entry): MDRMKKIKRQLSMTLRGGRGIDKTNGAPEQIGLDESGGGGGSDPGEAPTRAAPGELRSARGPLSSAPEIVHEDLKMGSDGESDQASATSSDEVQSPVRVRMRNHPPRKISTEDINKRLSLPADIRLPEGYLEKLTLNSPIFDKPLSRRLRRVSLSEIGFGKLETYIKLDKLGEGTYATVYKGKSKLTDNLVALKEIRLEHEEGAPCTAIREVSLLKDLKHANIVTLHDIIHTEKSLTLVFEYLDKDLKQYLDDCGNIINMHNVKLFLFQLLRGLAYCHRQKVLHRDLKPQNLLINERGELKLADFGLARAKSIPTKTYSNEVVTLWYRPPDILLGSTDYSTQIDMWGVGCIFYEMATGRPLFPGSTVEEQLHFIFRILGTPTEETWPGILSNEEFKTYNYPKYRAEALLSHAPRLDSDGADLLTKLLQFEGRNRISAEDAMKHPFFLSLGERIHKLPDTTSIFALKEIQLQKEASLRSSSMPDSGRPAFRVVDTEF
Sequence of CDK16/Cyclin Y (Q8ND76 whole entry partner): as the sequence (Q8ND76 whole entry partner) above

[18] = molecular target: CDK5/CDK5R1 (Homo sapiens, UniProt Q00535); assay: NanoBRET live-cell target engagement, CDK5-NanoLuc/CDK5R1 in HEK-293; type: binding
[19] = molecular target: CDK11B/Cyclin L2 (Homo sapiens, UniProt P21127); assay: NanoBRET live-cell target engagement, CDK11B-NanoLuc/Cyclin L2 in HEK-293; type: binding; conditions: CDK11b/L2; for IC50: read-out: IC50
Sequence of CDK11B/Cyclin L2 (P21127 1-782 isoform P21127-2): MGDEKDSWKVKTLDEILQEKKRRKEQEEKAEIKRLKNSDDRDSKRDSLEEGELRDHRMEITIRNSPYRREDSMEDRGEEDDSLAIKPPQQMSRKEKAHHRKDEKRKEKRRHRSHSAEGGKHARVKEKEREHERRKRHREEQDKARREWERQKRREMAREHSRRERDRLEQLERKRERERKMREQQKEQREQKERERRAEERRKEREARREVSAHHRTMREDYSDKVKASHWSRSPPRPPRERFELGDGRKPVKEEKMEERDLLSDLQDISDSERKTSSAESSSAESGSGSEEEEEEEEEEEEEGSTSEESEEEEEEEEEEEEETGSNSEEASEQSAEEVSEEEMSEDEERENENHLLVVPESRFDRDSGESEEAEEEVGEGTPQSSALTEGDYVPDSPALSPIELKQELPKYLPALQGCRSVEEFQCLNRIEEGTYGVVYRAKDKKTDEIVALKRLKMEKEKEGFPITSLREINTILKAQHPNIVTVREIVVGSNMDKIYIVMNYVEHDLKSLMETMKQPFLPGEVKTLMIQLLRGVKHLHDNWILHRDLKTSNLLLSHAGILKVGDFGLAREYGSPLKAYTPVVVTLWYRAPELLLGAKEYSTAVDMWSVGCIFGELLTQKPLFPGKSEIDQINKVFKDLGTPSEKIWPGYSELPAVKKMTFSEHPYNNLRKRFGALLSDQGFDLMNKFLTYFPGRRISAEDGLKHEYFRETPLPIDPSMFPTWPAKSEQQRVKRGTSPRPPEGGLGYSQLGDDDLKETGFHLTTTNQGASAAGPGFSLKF

[20] = molecular target: CDK8/Cyclin C (Homo sapiens, UniProt P49336); assay: NanoBRET live-cell target engagement, NanoLuc-CDK8/Cyclin C in HEK-293; type: binding; conditions: CDK8/C

Sequence of CDK9/Cyclin K (P50750 whole entry): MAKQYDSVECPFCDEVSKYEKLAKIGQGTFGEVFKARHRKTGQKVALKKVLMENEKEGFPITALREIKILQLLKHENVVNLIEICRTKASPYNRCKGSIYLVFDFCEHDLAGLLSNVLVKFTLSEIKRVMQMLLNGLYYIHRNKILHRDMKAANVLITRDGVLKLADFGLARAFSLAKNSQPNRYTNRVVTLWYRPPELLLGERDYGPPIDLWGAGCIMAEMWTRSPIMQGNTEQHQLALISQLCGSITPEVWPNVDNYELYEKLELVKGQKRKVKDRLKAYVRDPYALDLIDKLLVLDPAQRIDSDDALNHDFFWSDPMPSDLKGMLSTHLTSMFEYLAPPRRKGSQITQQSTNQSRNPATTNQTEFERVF
Sequence of CDK9/Cyclin K (O75909 whole entry partner): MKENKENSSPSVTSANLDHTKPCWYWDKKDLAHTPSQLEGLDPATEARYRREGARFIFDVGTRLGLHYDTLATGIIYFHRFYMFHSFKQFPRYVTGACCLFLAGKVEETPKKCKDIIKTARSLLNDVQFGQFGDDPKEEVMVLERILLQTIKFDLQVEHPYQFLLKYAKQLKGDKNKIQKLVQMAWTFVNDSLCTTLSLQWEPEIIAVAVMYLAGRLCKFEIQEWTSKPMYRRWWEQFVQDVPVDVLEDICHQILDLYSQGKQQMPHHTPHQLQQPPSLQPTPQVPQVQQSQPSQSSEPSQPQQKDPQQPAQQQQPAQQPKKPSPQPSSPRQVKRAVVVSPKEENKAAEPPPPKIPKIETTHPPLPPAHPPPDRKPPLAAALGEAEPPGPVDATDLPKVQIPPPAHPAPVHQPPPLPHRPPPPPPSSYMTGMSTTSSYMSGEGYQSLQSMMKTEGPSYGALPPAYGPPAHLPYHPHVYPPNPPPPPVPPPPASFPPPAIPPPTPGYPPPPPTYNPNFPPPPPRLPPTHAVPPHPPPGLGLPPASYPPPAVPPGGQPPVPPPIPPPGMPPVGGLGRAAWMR

CC(C)c1cnn2c(NCc3ccccc3-n3cccn3)nc(OC3CCCNC3)nc12 (centres unmarked) [LDC4297]
Inhibition at 10µM (%) ([1]; average): 42.4%
Inhibition at 10µM (%) ([1]; experiment 1): 42.8%
Inhibition at 10µM (%) ([1]; experiment 2): 42.0%
Inhibition at 10µM (%) ([2]; average): 90.8%
IC50 ([2]; average (± SEM where n=3)): 200 ± 20 nM
Inhibition at 10µM (%) ([2]; experiment 1): 89.8%
IC50 ([2]; experiment 1): 194 nM
Inhibition at 10µM (%) ([2]; experiment 2): 91.8%
IC50 ([2]; experiment 2): 170 nM
IC50 ([2]; experiment 3): 242 nM
Inhibition at 10µM (%) ([3]; average): 89.0%
Inhibition at 10µM (%) ([3]; experiment 1): 88.6%
Inhibition at 10µM (%) ([3]; experiment 2): 89.3%
Inhibition at 10µM (%) ([4]; CDK2/E1, average): 88.3%
IC50 ([4]; CDK2/E1, average (± SEM where n=3), read-out: IC50): 85 ± 2 nM
Inhibition at 10µM (%) ([4]; CDK2/E1, experiment 1): 85.3%
IC50 ([4]; CDK2/E1, experiment 1, read-out: IC50): 81 nM
Inhibition at 10µM (%) ([4]; CDK2/E1, experiment 2): 91.3%
IC50 ([4]; CDK2/E1, experiment 2, read-out: IC50): 86 nM
IC50 ([4]; CDK2/E1, experiment 3, read-out: IC50): 85 nM
IC50 ([4]; live HEK-293, 2 h, mean ± S.E.M. (n=3) or mean (n=2), read-out: IC50 for CDK/cyclin complexes, CDK2/E1): 85 ± 2 nM
Inhibition at 10µM (%) ([5]; CDK1/E1, average): 72.7%
IC50 ([5]; CDK1/E1, average (± SEM where n=3), read-out: IC50): 70 ± 20 nM
Inhibition at 10µM (%) ([5]; CDK1/E1, experiment 1): 70.9%
IC50 ([5]; CDK1/E1, experiment 1, read-out: IC50): 70 nM
Inhibition at 10µM (%) ([5]; CDK1/E1, experiment 2): 74.5%
IC50 ([5]; CDK1/E1, experiment 2, read-out: IC50): 110 nM
IC50 ([5]; CDK1/E1, experiment 3, read-out: IC50): 43 nM
IC50 ([5]; live HEK-293, 2 h, mean ± S.E.M. (n=3) or mean (n=2), read-out: IC50 for CDK/cyclin complexes, CDK1/E1): 70 ± 20 nM
Inhibition at 10µM (%) ([6]; average): 93.9%
IC50 ([6]; average (± SEM where n=3)): 22 ± 6 nM
Inhibition at 10µM (%) ([6]; experiment 1): 93.7%
IC50 ([6]; experiment 1): 17 nM
Inhibition at 10µM (%) ([6]; experiment 2): 94.2%
IC50 ([6]; experiment 2): 15 nM
IC50 ([6]; experiment 3): 33 nM
Inhibition at 10µM (%) ([7]; average): 27.5%
IC50 ([7]; average (± SEM where n=3)): 110 ± 80 nM
Inhibition at 10µM (%) ([7]; experiment 1): 31.4%
IC50 ([7]; experiment 1): 9 nM
Inhibition at 10µM (%) ([7]; experiment 2): 23.6%
IC50 ([7]; experiment 2): 270 nM
IC50 ([7]; experiment 3): 50 nM
Inhibition at 10µM (%) ([8]; average): 29.7%
Inhibition at 10µM (%) ([8]; experiment 1): 25.4%
Inhibition at 10µM (%) ([8]; experiment 2): 34.0%
Inhibition at 10µM (%) ([9]; CDK15/Y, average): 95.3%
IC50 ([9]; CDK15/Y, average (± SEM where n=3), read-out: IC50): 220 ± 20 nM
Inhibition at 10µM (%) ([9]; CDK15/Y, experiment 1): 95.2%
IC50 ([9]; CDK15/Y, experiment 1, read-out: IC50): 220 nM
Inhibition at 10µM (%) ([9]; CDK15/Y, experiment 2): 95.3%
IC50 ([9]; CDK15/Y, experiment 2, read-out: IC50): 260 nM
IC50 ([9]; CDK15/Y, experiment 3, read-out: IC50): 193 nM
IC50 ([9]; live HEK-293, 2 h, mean ± S.E.M. (n=3) or mean (n=2), read-out: IC50 for CDK/cyclin complexes, CDK15/Y): 220 ± 20 nM
Inhibition at 10µM (%) ([10]; average): 58.1%
IC50 ([10]; average (± SEM where n=3)): 80 ± 30 nM
Inhibition at 10µM (%) ([10]; experiment 1): 52.3%
IC50 ([10]; experiment 1): 20 nM
Inhibition at 10µM (%) ([10]; experiment 2): 64.0%
IC50 ([10]; experiment 2): 100 nM
IC50 ([10]; experiment 3): 104 nM
Inhibition at 10µM (%) ([11]; average): 89.3%
IC50 ([11]; average (± SEM where n=3)): 240 ± 70 nM
Inhibition at 10µM (%) ([11]; experiment 1): 89.3%
IC50 ([11]; experiment 1): 121 nM
Inhibition at 10µM (%) ([11]; experiment 2): 89.4%
IC50 ([11]; experiment 2): 370 nM
IC50 ([11]; experiment 3): 234 nM
Inhibition at 10µM (%) ([12]; average): 18.1%
Inhibition at 10µM (%) ([12]; experiment 1): 45.9%
Inhibition at 10µM (%) ([12]; experiment 2): -9.6%
Inhibition at 10µM (%) ([13]; average): 97.4%
IC50 ([13]; average (± SEM where n=3)): 230 ± 30 nM
Inhibition at 10µM (%) ([13]; experiment 1): 93.4%
IC50 ([13]; experiment 1): 177 nM
Inhibition at 10µM (%) ([13]; experiment 2): 101.4%
IC50 ([13]; experiment 2): 260 nM
IC50 ([13]; experiment 3): 262 nM
Inhibition at 10µM (%) ([14]; average): 18.0%
Inhibition at 10µM (%) ([14]; experiment 1): 25.5%
Inhibition at 10µM (%) ([14]; experiment 2): 10.4%
Inhibition at 10µM (%) ([15]; experiment 1): 53.8%
Inhibition at 10µM (%) ([15]; experiment 2): 57.6%
Inhibition at 10µM (%) ([16]; average): 24.9%
Inhibition at 10µM (%) ([16]; experiment 1): 20.0%
Inhibition at 10µM (%) ([16]; experiment 2): 29.8%
IC50 ([17]; average (± SEM where n=3)): 400 ± 30 nM
Inhibition at 10µM (%) ([17]; experiment 1): 87.3%
IC50 ([17]; experiment 1): 332 nM
Inhibition at 10µM (%) ([17]; experiment 2): 88.6%
IC50 ([17]; experiment 2): 430 nM
IC50 ([17]; experiment 3): 428 nM
Inhibition at 10µM (%) ([18]; CDK5/CDK5R1, average): 89.8%
IC50 ([18]; CDK5/CDK5R1, average (± SEM where n=3), read-out: IC50): 280 ± 50 nM
Inhibition at 10µM (%) ([18]; CDK5/CDK5R1, experiment 1): 86.3%
IC50 ([18]; CDK5/CDK5R1, experiment 1, read-out: IC50): 204 nM
Inhibition at 10µM (%) ([18]; CDK5/CDK5R1, experiment 2): 93.4%
IC50 ([18]; CDK5/CDK5R1, experiment 2, read-out: IC50): 280 nM
IC50 ([18]; CDK5/CDK5R1, experiment 3, read-out: IC50): 360 nM
IC50 ([18]; live HEK-293, 2 h, mean ± S.E.M. (n=3) or mean (n=2), read-out: IC50 for CDK/cyclin complexes, CDK5/R1): 280 ± 50 nM
Inhibition at 10µM (%) ([19]; average): 53.6%
IC50 ([19]; average (± SEM where n=3)): 760 ± 60 nM
Inhibition at 10µM (%) ([19]; experiment 1): 54.6%
IC50 ([19]; experiment 1): 876 nM
Inhibition at 10µM (%) ([19]; experiment 2): 52.6%
IC50 ([19]; experiment 2): 685 nM
IC50 ([19]; experiment 3): 732 nM
Inhibition at 10µM (%) ([20]; average): 3.8%
Inhibition at 10µM (%) ([20]; experiment 1): 14.8%
Inhibition at 10µM (%) ([20]; experiment 2): -7.1%
